Measured values taken from patent publication US20180271945A1, “UROCORTIN 2 ANALOGS AND USES THEREOF” (Research Development Foundation, priority 2009, published 2018).
Like-named read-outs stand apart in the source and are kept apart here. No end group written: not given here. *: point of attachment. Acm = CC(=O)NC*

Experiments:
[1] = target: T1, CRFR2 (Rattus norvegicus, UniProt P47866); assay: stimulation of cAMP accumulation in A7r5 cells; type: cell-based
T1 construct: A7r5 cells, which express CRFR2; endogenous in cells; host or cells: A7r5 cells
T1 sequence (P47866 1-431 isoform P47866-2): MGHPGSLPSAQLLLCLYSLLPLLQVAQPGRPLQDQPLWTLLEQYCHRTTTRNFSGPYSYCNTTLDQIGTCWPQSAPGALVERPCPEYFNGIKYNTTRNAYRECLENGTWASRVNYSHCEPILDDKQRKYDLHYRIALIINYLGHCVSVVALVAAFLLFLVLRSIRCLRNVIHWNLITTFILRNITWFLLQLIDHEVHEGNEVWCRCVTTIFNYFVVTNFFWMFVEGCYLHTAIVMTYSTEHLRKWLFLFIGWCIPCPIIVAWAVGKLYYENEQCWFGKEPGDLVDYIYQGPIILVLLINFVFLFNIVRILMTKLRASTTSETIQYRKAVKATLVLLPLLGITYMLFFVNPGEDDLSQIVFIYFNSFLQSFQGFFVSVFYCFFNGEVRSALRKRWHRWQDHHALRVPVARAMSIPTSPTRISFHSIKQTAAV
Experimental: Urocortin 2 precursors were overexpressed in various cell lines, and their function was evaluated. Pancreatic and skin cell lines were infected with mouse urocortin 2 (mUcn 2) lentivirus. The amino acid sequence of mouse urocortin 2 is provided as SEQ ID NO:10. […] The peptide was synthesized and bioactivity was determined by the stimulation of cAMP accumulation in A7r5 cells, which express CRFR2. […] It is possible that R^0mUcn 2 could be further processed by aminopeptidases to mUcn 2(1-38). Number of assays are depicted as a superscript.
The corresponding human analog, R^0hUcn 2, was synthesized.
The EC50S were calculated based on protein determination by immunoassay and chromatographic peak height.

[2] = QC reverse phase HPLC (trifluoroacetic acid/acetonitrile) as evidence of solubility/hydrophilicity; type: physicochemical; conditions: from reverse phase HPLC retention time
From the text: A peptide extended with a hydrophilic arginine residue such as R^0hUcn 2 is likely more soluble, and therefore, a better pharmaceutical agent, than hUcn 2(1-38). […]

[3] = A7r5 cells, EC50s calculated based on protein determination by immunoassay and chromatographic peak height, read-out: cAMP A7r5 (EC50)
[4] = A7r5 cells, which express CRFR2, range in brackets, number of assays as superscript, read-out: EC50 for stimulation of cAMP accumulation in A7r5 cells

C(Acm)SPTRHPGSRIVLSLDVPIGLLQILLEQARARAAREQATTNARILARVGHC(Acm)-OH [[Cys^1,51 (Acm)]-hUcn 2(1-51)-OH)]
EC50 [1, 3]: 9.5 nM

HPGSRIVLSLDVPIGLLQILLEQARARAAREQATTNARILARV-NH2 [SRP (HPGSR-hUcn 2)]
EC50 [1, 3]: 0.09 nM

IPTFQLRPQNSPQTTPRPAASESPSAAPTWPWAAQSHCSPTRHPGSRIVLSLDVPIGLLQILLEQARARAAREQATTNARILARV-NH2 [hUcn 2 prohormone]
EC50 [1]: 2.3 nM

IVLSLDVPIGLLQILLEQARARAAREQATTNARILARV-OH [hUcn 2-OH]
EC50 [1, 3]: 90.4 nM

IVLSLDVPIGLLQILLEQARARAAREQATTNARILARVG-OH [hUcn 2-G-OH]
EC50 [1, 3]: 6.3 nM

IVLSLDVPIGLLQILLEQARARAAREQATTNARILARVGH-OH [hUcn 2-GH-OH]
EC50 [1, 3]: 2.9 nM

IVLSLDVPIGLLQILLEQARARAAREQATTNARILARVGHC-OH [hUcn 2-GHC-OH]
EC50 [1, 3]: 13.9 nM

RIVLSLDVPIGLLQILLEQARARAAREQATTNARILARV-NH2 [R^0-hUcn 2]
EC50 [1, 4]: 0.027 nM | hydrophilicity compared with hUcn 2(1-38) [2]: significantly increased hydrophilicity

RVILSLDVPIGLLRILLEQARYKAARNQAATNAQILAHV-NH2 [R^0-mUcn 2]
EC50 [1, 4]: 0.05 nM

TPIPTFQLLPQNSLETTPSSVTSESSSGTTTGPSASWSNSKASPYLDTRVILSLDVPIGLLRILLEQARYKAARNQAATNAQILAHV-NH2 [mUcn 2 prohormone]
EC50 [1]: 0.53 nM
